Source: US4072574A, “System for in vitro assay for mutagenicity and/or carcinogenicity of chemicals or other exogenous agents” (priority 1976, dated 1978)

Columns and labels:
AMV DNA polymerase [1] = experiment: Metal requirements for catalysis by AMV DNA polymerase; format: biochemical, avian myeloblastosis virus; settings: poly (A).oligo (dT)
Experimental: (§1) All known DNA polymerases require either Mg^2+ or Mn^2+ as an added divalent cation for activity. AMV DNA polymerase used Mg^2+ as an added divalent cation and the maximum rate of polymerization with poly (A).oligo (dT) was attained at 5 mM Mg^2+. […] Thymidine monophosphate incorporation with Be^2+ was less than 0.3% of that obtained with 5 mM Mg^2+.

[2] = species as printed in the value; cited from earlier work
AMV DNA polymerase [3] = experiment: Fidelity of in vitro DNA synthesis (error frequency) with AMV DNA polymerase copying synthetic polynucleotide templates; settings: for Class: Table 1, classes 1-3 not defined
Excerpt: In this invention, the ability of carcinogens to decrease the fidelity of in vitro DNA synthesis will be used to screen for carcinogenic or mutagenic agents. The system uses synthetic polynucleotides of defined composition which may be copied in the test tubes with procaryotic, eucaryotic or viral DNA polymerases. The use of synthetic polynucleotides of defined composition allows the measurement of the simultaneous incorporation of the correct, complementary nucleotide and an incorrect, non-complementary nucleotide. The correct nucleotide is labeled with [α-^32 P] of low specific activity and the incorrect nucleotide is labeled with [^3 H] of high specific activity. Through this double labeled reaction it is possible to determine the simultaneous incorporation of both nucleotides and thus to determine an error frequency. The error frequency may be defined as the ratio of the incorrect/correct nucleotide incorporation. Agents which increase this error frequency may be scored as positive. […] Agents which score positive would be checked using different templates to underscore the positive results. In this system different polymerases will be used as well as different templates. One would expect that most carcinogens would change the fidelity of DNA synthesis with different polymerases as well as with different templates though this need not be the case.
Each assay will consist of a polymerase, a polynucleotide template that only contains one or two nucleotides, a complementary nucleotide and a non-complementary nucleotide as well as magnesium. Both of the nucleotides will be labeled by radioactive precursors and the ratio between the two is to be used for a measure of error frequency in the system. In instances where a template requires two complementary nucleotides, only one will be radioactively labeled.
Reactions (total volume 0.05 ml) which measured complementary nucleotide incorporation contained 50 mM Tris-HCL (pH 8.0), 20 mM KCl, 5 mM dithiothreitol, 5 mM MgCl2, 2μg BSA, […] [α-^32 P] -dTTP (60 dpm/pmole), 1μg poly (A).oligo (dT) (1:1.5 mass ratio), and 0.45 μg of AMV DNA polymerase. For simultaneous quantitation of complementary and non-complementary nucleotide incorporation each reaction was modified to contain 26μM [α-^32 P]dTTP (12 dpm/pmole) and 23μM [^3 H]-dCTP (50,000 dpm/pmole). […] Metals were added directly to the reaction mixture as aqueous solutions of chloride salts. All reactions were incubated for 60 min. at 37° C. Incorporation of radioactive nucleotides into an acid-insoluble and alkali-resistant product was determined by using the precipitation-solubilization procedure as described by Battula and Loeb. All experiments were performed in triplicate and the averages were determined.
In order to determine the effect of different metals on the accuracy of DNA replication, metal cations were added as chloride salts directly to the polymerase reaction. In these experiments, poly (A).oligo (dT) was the template-primer and the simultaneous incorporation of complementary nucleotide, [α-^32 P]-dTMP, and the non-complementery nucleotide, [^3 H]-dCMP, was determined.
The effect of metal salts on the fidelity of DNA synthesis was examined by testing each of the metal salts at a minimum of seven different concentrations.

[4] = known status of the compound; cited from earlier work
several DNA polymerases = format: biochemical; settings: preliminary results
Experimental: as §1

[5] = system: sea urchin nuclear DNA polymerase; experiment: Fidelity of DNA synthesis with sea urchin nuclear DNA polymerase; format: biochemical; settings: template poly (dA).oligo (dT)
Excerpt: It is one of 15 carcinogens officially listed by the U.S. government as possibly being carcinogenic in humans.

[6] = 2 mM added cation + Mg^2+ 5 mM, poly (A).oligo (dT)
[7] = 5 mM added cation + Mg^2+ 5 mM, poly (A).oligo (dT)
[8] = 10 mM added cation + Mg^2+ 5 mM, poly (A).oligo (dT)
[9] = Beryllium Chloride 1 mM, poly (A) . oligo (dT), non-complementary rGTP
[10] = Beryllium Chloride 1 mM, poly (C) . oligo (dG), non-complementary dATP
[11] = Beryllium Chloride 1 mM, poly d(A-T), non-complementary dCTP
[12] = Beryllium Chloride 2 mM, poly (A) . oligo (dT), non-complementary rGTP
[13] = Beryllium Chloride 2 mM, poly (C) . oligo (dG), non-complementary dATP
[14] = Beryllium Chloride 3 mM, poly d(A-T), non-complementary dCTP
[15] = Beryllium Chloride 4 mM, poly (C) . oligo (dG), non-complementary dATP
[16] = Beryllium Chloride 5 mM, poly (A) . oligo (dT), non-complementary rGTP
[17] = Beryllium Chloride 5 mM, poly (C) . oligo (dG), non-complementary dATP
[18] = Beryllium Chloride 5 mM, poly d(A-T), non-complementary dCTP
[19] = Beryllium Chloride 10 mM, poly (A) . oligo (dT), non-complementary rGTP

Structure (SMILES): [Be+2].[Cl-].[Cl-] [BeCl2, beryllium chloride]
- Thymidine monophosphate incorporation relative to that obtained with 5 mM Mg^2+ (AMV DNA polymerase [1]; Be^2+ in the absence of Mg^2+, 60 min): less than 0.3%
- ability to substitute for Mg^2+ as added divalent cation (AMV DNA polymerase [1]; absence of Mg^2+, Be^2+ up to 15 mM): did not result in detectable poly (dT) synthesis
- carcinogenicity in animals [2]: induces pulmonary carcinomas in monkey and osteogenic sarcomas in rabbits
- Complementary Nucleotide (pmoles dTMP) (AMV DNA polymerase [3]; [6]): 291 pmol
- Non-Complementary Nucleotide (pmoles dCMP) (AMV DNA polymerase [3]; [6]): 0.372 pmol
- Error Frequency (AMV DNA polymerase [3]; 2 mM added cation + Mg^2+ 5 mM, poly (A).oligo (dT), dCMP/dTMP): 1/782
- Complementary Nucleotide (pmoles dTMP) (AMV DNA polymerase [3]; [7]): 133 pmol
- Non-Complementary Nucleotide (pmoles dCMP) (AMV DNA polymerase [3]; [7]): 0.294 pmol
- Error Frequency (AMV DNA polymerase [3]; 5 mM added cation + Mg^2+ 5 mM, poly (A).oligo (dT), dCMP/dTMP): 1/453
- Complementary Nucleotide (pmoles dTMP) (AMV DNA polymerase [3]; [8]): 8.6 pmol
- Non-Complementary Nucleotide (pmoles dCMP) (AMV DNA polymerase [3]; [8]): 0.114 pmol
- Error Frequency (AMV DNA polymerase [3]; 10 mM added cation + Mg^2+ 5 mM, poly (A).oligo (dT), dCMP/dTMP): 1/75
- Complementary Nucleotide Incorporation (AMV DNA polymerase [3]; [9]): 568 pmol
- Error Frequency (AMV DNA polymerase [3]; [9]): 1/6104
- Non-Complementary Nucleotide Incorporation (AMV DNA polymerase [3]; [9]): 0.093 pmol
- Complementary Nucleotide Incorporation (AMV DNA polymerase [3]; [10]): 181 pmol
- Error Frequency (AMV DNA polymerase [3]; [10]): 1/1649
- Non-Complementary Nucleotide Incorporation (AMV DNA polymerase [3]; [10]): 0.110 pmol
- Complementary Nucleotide Incorporation (AMV DNA polymerase [3]; [11]): 209 pmol
- Error Frequency (AMV DNA polymerase [3]; [11]): 1/1306
- Non-Complementary Nucleotide Incorporation (AMV DNA polymerase [3]; [11]): 0.160 pmol
- Complementary Nucleotide Incorporation (AMV DNA polymerase [3]; [12]): 503 pmol
- Error Frequency (AMV DNA polymerase [3]; [12]): 1/2704
- Non-Complementary Nucleotide Incorporation (AMV DNA polymerase [3]; [12]): 0.186 pmol
- Complementary Nucleotide Incorporation (AMV DNA polymerase [3]; [13]): 81 pmol
- Error Frequency (AMV DNA polymerase [3]; [13]): 1/1025
- Non-Complementary Nucleotide Incorporation (AMV DNA polymerase [3]; [13]): 0.079 pmol
- Complementary Nucleotide Incorporation (AMV DNA polymerase [3]; [14]): 137 pmol
- Error Frequency (AMV DNA polymerase [3]; [14]): 1/979
- Non-Complementary Nucleotide Incorporation (AMV DNA polymerase [3]; [14]): 0.140 pmol
- Complementary Nucleotide Incorporation (AMV DNA polymerase [3]; [15]): 57 pmol
- Error Frequency (AMV DNA polymerase [3]; [15]): 1/919
- Non-Complementary Nucleotide Incorporation (AMV DNA polymerase [3]; [15]): 0.062 pmol
- Complementary Nucleotide Incorporation (AMV DNA polymerase [3]; [16]): 128 pmol
- Error Frequency (AMV DNA polymerase [3]; [16]): 1/487
- Non-Complementary Nucleotide Incorporation (AMV DNA polymerase [3]; [16]): 0.263 pmol
- Complementary Nucleotide Incorporation (AMV DNA polymerase [3]; [17]): 64 pmol
- Error Frequency (AMV DNA polymerase [3]; [17]): 1/831
- Non-Complementary Nucleotide Incorporation (AMV DNA polymerase [3]; [17]): 0.077 pmol
- Complementary Nucleotide Incorporation (AMV DNA polymerase [3]; [18]): 97 pmol
- Error Frequency (AMV DNA polymerase [3]; [18]): 1/689
- Non-Complementary Nucleotide Incorporation (AMV DNA polymerase [3]; [18]): 0.140 pmol
- Complementary Nucleotide Incorporation (AMV DNA polymerase [3]; [19]): 52 pmol
- Error Frequency (AMV DNA polymerase [3]; [19]): 1/149
- Non-Complementary Nucleotide Incorporation (AMV DNA polymerase [3]; [19]): 0.349 pmol
- Class (AMV DNA polymerase [3]; template poly (A).oligo (dT)): 1
- effect on error frequency (in words) (AMV DNA polymerase [3]; poly (A).oligo (dT), dTMP complementary, dCMP non-complementary): error frequency increased
- Metal Concentration which yielded the largest observed change in error rate (AMV DNA polymerase [3]; template poly (A).oligo (dT)): 10 mM
- effect on the fidelity of DNA synthesis (in words) (AMV DNA polymerase [3]; various templates): decreases the fidelity
- Carcinogen or Mutagen [4]: +

Structure (SMILES): [Cl-].[Cl-].[Co+2] [CoCl2]
- Class (AMV DNA polymerase [3]; template poly (C).oligo (dG)): 1
- Metal Concentration which yielded the largest observed change in error rate (AMV DNA polymerase [3]; template poly (C).oligo (dG)): 4 mM
- effect on the fidelity of DNA synthesis (in words) (AMV DNA polymerase [3]; various templates): alter the fidelity
- Carcinogen or Mutagen [4]: +
- metal activator function (several DNA polymerases): serve as metal activators with several DNA polymerases

Structure (SMILES): [Cl][Ni][Cl] [NiCl2]
- Class (AMV DNA polymerase [3]; template poly (C).oligo (dG)): 1
- Metal Concentration which yielded the largest observed change in error rate (AMV DNA polymerase [3]; template poly (C).oligo (dG)): 8 mM
- effect on the fidelity of DNA synthesis (in words) (AMV DNA polymerase [3]; various templates): alter the fidelity
- metal activator function (several DNA polymerases): serve as metal activators with several DNA polymerases

Structure (SMILES): O=C1CCO1 [β-propiolactone]
- effect on the fidelity of DNA synthesis (in words) [5]: decreases the fidelity
- carcinogenicity in animals [2]: carcinogen in mice, rats and hamsters
- effect on the fidelity of DNA synthesis (in words) (AMV DNA polymerase [3]; template poly (dA).oligo (dT)): decreases the fidelity
